Columns and labels:
mSC mitochondria [1] = assay: Mitochondrial pH imaging (mito-SypHer) in mSC of mouse sciatic nerve; assay type: in vivo
Description: (§1) Mice were anesthetized with isoflurane inhalation and placed under a Stemi2000 microscope (Zeiss). Incision area was shaved and cleaned using betadine solution. After incision, the gluteus superficialis and biceps femoris muscles were separated to reveal the cavity traversed by the sciatic nerve. The nerve was lift out using spatula and a thin glass needle filled with viral solution (8 μl) was introduced into the nerve with a micromanipulator. This solution was injected over 30 min with short pressure pulses using a Picospritzer III (Parker Hannifin) coupled to a pulse generator. After injection, the nerve was replaced into the cavity, the muscles were readjusted, and the wound was closed using clips (for further details see Gonzalez et al., 2014^3).
(§2) TRO19622 drug (Tocris bioscience, Ref. 2906) was diluted in ethanol to 20 mM and then, the solution was diluted in sterile PBS to 20 μM. TRO19622 treatments were realized by 3 mg/kg intraperitoneal (IP) injections of 20 mM solution or by intra sciatic nerve injections of 2 μl of drug solution 2 μM using a Hamilton syringe or a glass needle in sterile conditions 30 minutes before multiphoton image acquisitions or immunohistochemistry and demyelination studies respectively. Methyl jasmonate drug (Sigma-Aldrich, Ref. 392707) was diluted in 1 ml of sterile PBS to 1M or 3M. Methyl jasmonate treatments were realized by intra sciatic nerve injections of 1 μl of drug solution using a glass needle and micromanipulator in sterile conditions following the same virus injections procedure (see in vivo virus injection in the sciatic nerve method) two hours before multiphoton image acquisition. […] All drug concentrations were previously evaluated by Bordet et al, 2007^5; Goldin et al, 2008^6; Sharov et al, 2007^7.
First injected mouse was anesthetized with 5% of isoflurane a 1.5% of oxygen into the anesthesia system box (World Precision Instruments, Ref. EZ-B800) for 5 minutes. Anesthesia controls were realized^8. Then, mouse was placed in anesthesia mask and the incision area was shaved and cleaned with betadine and ethanol 70% solution. […]

VDAC1 [2] = molecular target: T1, VDAC1 (Mus musculus, UniProt Q60932); assay: Cytoplasmic calcium imaging (GCaMP2, multiphoton) in mSC of mouse sciatic nerve; assay type: in vivo; conditions: for presence of cytoplasmic calcium in mSC after crush: cytoplasmic GCaMP2, after nerve crush
T1 construct: strongly expressed in mSC mitochondria; from tissue; host or cells: myelinating Schwann cells (mSC) of the sciatic nerve of living mice (wild type; db/db and +/db in A10)
Description: as §1, §2
(§3) First injected mouse was anesthetized with 5% of isoflurane a 1.5% of oxygen into the anesthesia system box (World Precision Instruments, Ref. EZ-B800) for 5 minutes. Anesthesia controls were realized^8. Then, mouse was placed in anesthesia mask and the incision area was shaved and cleaned with betadine and ethanol 70% solution. Incision was realized using a scalpel and the skin was retracted using forceps in order to expose the gluteus superficialis and bleeps femoris muscles. Next, the connective tissue that connects both muscles was cut and the sciatic nerve was gently lifted out using a spatula. A flexible bridge was slide below sciatic nerve and it was placed into a plastic first pool fixed to the bridge. Mouse was placed under the multiphoton microscope, the bridge was fixed using magnetic brackets to avoid physiological movement and mouse legs were fixed using clippers. Microscope dark box temperature is controlled to 37° C. during all time-lapse imaging. Finally, a second pool was fixed to the first pool using a drop of agarose low melting 3% (Promega, Ref. V2111) in Leibovitz's L15 medium (Gibco Life Technologies) and filled with deionized water to immerse the objectives 20× or 63× (Carl Zeiss Microscopy).
(§4) All time-lapse images were obtained with a multiphoton microscope Zeiss LSM 7 MP OPO. Mitochondria motility images were acquired by time-lapse recording of one image every five minutes during five hours at 920 nm. GCaMP2 and SypHer probe images were acquired by time-lapse recording of one image every fifteen minutes during five hours at 985 nm. Images were acquired to constant 1% of laser intensity to 100 msec of acquisition time with 512×512 resolution and 10 images of z-stack of 20 μm. Images were saved in Zeiss .czi format and processed using Image J program. For further details see Gonzalez et al., 201X^8
To characterize mitochondria physiology during the demyelination process we combined two in vivo methods. We used the nerve crush model to reliably induce demyelination in the mouse sciatic nerve and a viral approach^19 allowing the expression of different fluorescent probes selectively into mitochondria of myelinating Schwann cells (mSC) in mouse sciatic nerve. […]

[3] = system: phospho-bcl2, cleaved caspase-3; conditions: after MJ treatment
Description: To investigate the signaling pathways induced by mitochondrial calcium release, sciatic nerves were treated with vehicle or TRO19622 before crush or with MJ without crush and phosphorylation-activated pathways were determined by western blot 4 hours or 12 hours after nerve crush or MJ treatment. […] While it is known that SC demyelination is not due to cell death but to a dedifferentiation process, we nevertheless checked mitochondria-related cell death factors in crushed or MJ treated nerves.

[4] = system: phospho-ERK1/2, phospho-p38, phospho-JNK and phospho-c-jun; assay: Western blot of demyelination signaling pathways in sciatic nerve after crush or MJ; assay type: in vivo, mouse; conditions: nerves not crushed; 4 or 12 hours after treatment
Description: as §2

phospho-c-jun = assay: Immunohistochemistry of nuclear phospho-c-jun in mSC after nerve crush or MJ; assay type: in vivo, mouse; conditions: for nuclear phospho-c-jun in mSC after nerve crush: immunohistochemistry, TRO19622 30 minutes prior crush
Description: The dissected nerve was washed in L15 medium, fixed in Zamboni's fixative (Stefanini et al., 1967^4) for 10 min at room temperature, washed in PBS, and incubated in successive glycerol baths (15, 45, 60, 66% in PBS) for 18 to 24 h each before freezing at −20° C. The nerves were cut in small pieces in 66% glycerol and the perineurium sheet removed. Small bundles of fibers were teased in double-distilled water on Superfrost slides, dried overnight at room temperature, and the slides stored at −20° C. For immunostaining, the teased fibers were incubated for 1 h at room temperature in blocking solution (10% goat serum, 0.2% TritonX100, and 0.01% sodium azide in PBS). Then, the samples were then incubated with anti-ECCD2 primary mouse antibody (1/100, BD biosciences, Ref. 610181), anti-phosphoS63-c-jun primary mouse antibody (1/200, BD Biosciences, Ref. 558036), anti-c-jun primary mouse antibody (1/200, BD Biosciences, Ref. 610326), anti-VDAC primary rabbit antibody (1/100, Cell Signaling, Ref. 4866) or/and MitoTracker Red (1/1000, Molecular Probes, Ref. M7515) in blocking solution overnight at 4° C. The next day, the samples were washed in PBS and incubated for 1 h at room temperature with secondary donkey antibodies coupled to Alexa488, Alexa 594 or Alexa647 (1/1600, Molecular probes) and TO-PRO-3 iodide (50 μM, Invitroge, Ref. T3605). Finally the samples were washed in PBS and mounted in Immu-mount (Thermo Scientific). Images were acquired at room temperature using a 20× or 40× objective, a Zeiss confocal microscope LSM710, and its associated software.
as §2
To go further we also selectively silenced VDAC1 in mSC and measured the expression level of nuclear phospho-c-jun by immunohistochemistry after nerve crush. […]

VDAC1 [5] = molecular target: T1, VDAC1; assay: Mitochondrial calcium imaging (mito-GCaMP2, multiphoton) in mSC of mouse sciatic nerve, nerve crush model; assay type: in vivo; conditions: for mSC mitochondria calcium concentration: non-crushed nerves, two hours after injections, compared to vehicle injection; for mitochondrial calcium release in mSC after nerve crush: mito-GCaMP2, VDAC1 silenced or drug given before crush
Description: as §1, §2, §3, §4
To characterize mitochondria physiology during the demyelination process we combined two in vivo methods. We used the nerve crush model to reliably induce demyelination in the mouse sciatic nerve and a viral approach^19 allowing the expression of different fluorescent probes selectively into mitochondria of myelinating Schwann cells (mSC) in mouse sciatic nerve.

mSC mitochondria [6] = assay: Mitochondrial motility imaging (mito-dsRed2) in mSC of mouse sciatic nerve; assay type: in vivo; conditions: for loss of mitochondrial motility after nerve crush: 5 hours after nerve injury, TRO19622 30 minutes before crush
Description: as §1, §2, §3
as §4, with “Images were saved in Zeiss .czi format and processed using Image J program. For further details see Gonzalez et al., 201X^8” left out

[7] = system: myelinating Schwann cells; assay: mSC demyelination morphology (confocal microscopy) four days after nerve crush; assay type: in vivo, mouse; conditions: for number of myelinating cell remaining after crush: four days after crush
Description: as §1, §2
Finally we also investigated the demyelination using typical defects induced in the cellular morphology of mSC. Nerves expressing control or VDAC1 shRNAs were crushed to induce demyelination and four days later, when demyelination is maximal, we analyzed the morphology of VDAC1-silenced mSC using confocal microscopy as described previously^19. mSC display long homogenous noodle-like morphology with a regular diameter but during demyelination, they acquire a heterogeneous morphology often alterning large structures (myelin ovoids) with thin processes and their extremities split in fine extensions.

T1 sequence (Q60932 14-296): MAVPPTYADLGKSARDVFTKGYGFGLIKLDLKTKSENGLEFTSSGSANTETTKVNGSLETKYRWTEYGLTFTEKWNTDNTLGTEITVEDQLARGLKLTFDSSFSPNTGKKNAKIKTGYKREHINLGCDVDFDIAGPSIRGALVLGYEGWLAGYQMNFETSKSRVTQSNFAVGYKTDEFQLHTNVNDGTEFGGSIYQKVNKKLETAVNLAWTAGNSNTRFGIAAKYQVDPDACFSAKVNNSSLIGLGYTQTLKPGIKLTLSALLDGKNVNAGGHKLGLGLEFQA

| Compound | mitochondrial pH (mSC mitochondria [1]; non-crushed nerves) | calcium presence in the cytoplasm (VDAC1 [2]; MJ treatment, non-crushed nerves) | phospho-bcl2 and cleaved caspase-3 levels [3] | phosphorylation-activated pathways and phospho-c-jun [4] | nuclear phospho-c-jun (phospho-c-jun; nerves treated with MJ) | mSC mitochondria calcium concentration (VDAC1 [5]) | mSC mitochondria calcium concentration (VDAC1 [5]; listed as methyl jasmonate) | mitochondrial motility (mSC mitochondria [6]; without crush) | number of demyelinating cells ([7]; non-crushed sciatic nerves) | presence of cytoplasmic calcium in mSC after crush (VDAC1 [2]) | nuclear phospho-c-jun in mSC after nerve crush (phospho-c-jun) | mitochondrial calcium release in mSC after nerve crush (VDAC1 [5]) | loss of mitochondrial motility after nerve crush (mSC mitochondria [6]) | number of myelinating cell remaining after crush [7] | changes induced by nerve crush in mitochondrial pH not abrogated (mSC mitochondria [1]; after nerve crush) [%] | part of the calcium appearing in the cytoplasm after nerve crush that is not abolished (non-mitochondrial origin) (VDAC1 [2]; after nerve crush with VDAC1 silenced or blocked) [%] | mitochondrial calcium release in mSC after nerve crush (VDAC1 [5]; listed as VDAC shRNA3) | changes induced by nerve crush in mitochondrial motility not abrogated (mSC mitochondria [6]; after nerve crush) [%] |
| --- | --- | --- | --- | --- | --- | --- | --- | --- | --- | --- | --- | --- | --- | --- | --- | --- | --- | --- |
| CC/C=C\CC1C(=O)CCC1CC(=O)OC (centres unmarked) [MJ, methyl jasmonate] | increase | increased | Neither phospho-bcl2 nor cleaved caspase-3 levels were increased | significant increase | robust increase | sharply decreased | induced mitochondrial calcium release | decreased | significant increase | – | – | – | – | – | – | – | – | – |
| VDAC1 shRNA2: VDAC1 shRNA sequence 2 GTTGGCTATAAGACGGATGAACT (Sigma-Aldrich, Ref. #TRCN0000012391), expressed from AAV vector (expressed from AAV vector) | – | – | – | – | – | – | – | – | – | more modest | strong reduction | significantly reduced | significantly prevented | significant increase | – | – | – | – |
| VDAC1 shRNA3: VDAC1 shRNA sequence 3 ACCAGGTATCAAACTGACGTTCT (Sigma-Aldrich, Ref. #TRCN0000012392), expressed from AAV vector (expressed from AAV vector) | – | – | – | – | – | – | – | – | – | strongly reduced | strong reduction | completely inhibited | significantly prevented | significant increase | 12 | 13 | completely abolished | 20 |

Reference: patent US12053480B2, “Methods and pharmaceutical compositions for treating peripheral demyelinating diseases” (INSERM (INSTITUT NATIONAL DE LA SANTE ET DE LA RECHERCHE …, priority 2015, dated 2024)
